23 compounds from PubChem BioAssay (NCI) can be followed below.

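In this assay, cells in 96-well plates receive the compound at five concentrations for 48 hours. Endpoints are linearly interpolated between the surrounding concentrations. GI50 = concentration required for 50% inhibition of growth. TGI: concentration producing complete growth inhibition.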

Among the test systems are BT-549 breast; HS 578T breast; MCF7 breast; MDA-MB-435; NCI/ADR-RES ovarian.
What all share (test): inhibition of tumour cell growth, NCI panel, 48 h

Regarding `O=C(NC1=NC2C=CC([N+](=O)[O-])=CC2S1)C(=O)Nn1c(=S)[nH]c2ccccc2c1=O` (stereo unspecified), the TGI in the test on BT-549 breast, in the test with HS 578T breast, in the test on MCF7 breast, in the test on MDA-MB-435 and in the test with NCI/ADR-RES ovarian was > 100 µM throughout.
Regarding `Nc1ccc(/C=N/Nc2ccnc3c(N)cccc23)c2cccnc12`, the GI50 is 2.04 µM in the test with HS 578T breast, 1.48 µM in the test on MCF7 breast, 1.64 µM in the test on MDA-MB-435 and 1.93 µM with NCI/ADR-RES ovarian. For the same compound, the TGI with HS 578T breast came out at 4.62 µM; in the test on MCF7 breast, 3.12 µM; in the test with MDA-MB-435, 3.16 µM; in the test with NCI/ADR-RES ovarian, 4.41 µM.
Take `CCOC(=O)c1c(C(F)(F)F)n([O-])c2ccc(OC)cc2[n+]1=O`: the GI50 in the test with BT-549 breast was 4.29 µM; in the test with HS 578T breast it was 4.07 µM; in the test with MCF7 breast it was 4.38 µM; in the test with MDA-MB-435 it was 4.47 µM; in the test with NCI/ADR-RES ovarian it was 3.72 µM. Moreover, the TGI is 33.7 µM in the test on BT-549 breast; 46.2 µM in the test on HS 578T breast; 65 µM with MCF7 breast; 76 µM in the test on MDA-MB-435; 40.7 µM in the test with NCI/ADR-RES ovarian.
On to `C[C@@]12CCC(=O)C=C1CC[C@H]1C2=CC[C@]2(C)C1CC[C@@]2(C)O` (stereo partly specified), for which the TGI in the test on BT-549 breast, in the test with HS 578T breast, with MCF7 breast, with MDA-MB-435 and in the test with NCI/ADR-RES ovarian was > 100 µM throughout.
In the case of `N#Cc1ccnc(N2C(=O)CC[C@H]2C(=O)N(c2cncc(F)c2)[C@H](C(=O)NC2CC(F)(F)C2)c2ccccc2Cl)c1`, the GI50 in the test on BT-549 breast is > 100 µM; in the test with HS 578T breast, 99.6 µM; in the test on MCF7 breast, 27 µM; in the test with MDA-MB-435, 64 µM; in the test on NCI/ADR-RES ovarian, > 100 µM. Moreover, the TGI in the test with BT-549 breast, in the test on HS 578T breast, in the test on MCF7 breast, in the test on MDA-MB-435 and in the test with NCI/ADR-RES ovarian was > 100 µM throughout.
Take `COc1ccc2c(c1)CC[C@@H]1[C@@H]2CC[C@]2(C)C(c3ccco3)=C(C=O)C[C@@H]12`: the GI50 with BT-549 breast was 17.7 µM; in the test on HS 578T breast, 23.2 µM; with MCF7 breast, 8.2 µM; in the test on MDA-MB-435, 2.21 µM; in the test on NCI/ADR-RES ovarian, 11.5 µM. Further, the TGI in the test on BT-549 breast is 43.3 µM; in the test with HS 578T breast, 60 µM; in the test on MCF7 breast, > 100 µM; in the test on MDA-MB-435, 5.88 µM; in the test on NCI/ADR-RES ovarian, 64.6 µM.
Regarding `COc1ccc2c(c1)CCC1C2CC[C@]2(C)/C(=N/OC(=O)Cc3ccccc3)CCC12` (stereo partly specified), the GI50 with BT-549 breast was 24.7 µM; in the test on HS 578T breast it was 28.6 µM; with MCF7 breast, 24.7 µM; in the test with MDA-MB-435, 16.7 µM; with NCI/ADR-RES ovarian, 20.9 µM. Further, the TGI in the test on BT-549 breast stood at 49.4 µM; in the test with HS 578T breast, 70 µM; in the test with MCF7 breast it was 54.5 µM; with MDA-MB-435, 30.5 µM; in the test with NCI/ADR-RES ovarian it was 39.8 µM.
`COc1ccc(/C=C/c2n[nH]c3ccc(N4CCOC4=O)cc23)cc1`: the GI50 in the test on BT-549 breast is 1.14 µM; in the test with HS 578T breast, 3.23 µM; in the test on MCF7 breast, 1.93 µM; in the test on MDA-MB-435 it was 3.2 µM; with NCI/ADR-RES ovarian, 2.99 µM. In addition, the TGI in the test on BT-549 breast worked out at 5.32 µM; with HS 578T breast, 9.59 µM; in the test with MCF7 breast, 40.3 µM; in the test with MDA-MB-435 it was 38.6 µM; in the test on NCI/ADR-RES ovarian, 40.2 µM.
As for `COc1ccc(NC(=O)c2sc3nc(C)c(C(O)c4ccccc4)cc3c2N)cc1` (stereo unspecified), the GI50 in the test on BT-549 breast is 6.13 µM; in the test with HS 578T breast, 1.73 µM; in the test with MCF7 breast, 0.502 µM; with MDA-MB-435 it was 0.291 µM; in the test on NCI/ADR-RES ovarian, 2.55 µM. Moreover, the TGI in the test on BT-549 breast worked out at 51.6 µM; in the test on HS 578T breast it was 6.86 µM; in the test with MCF7 breast it was 54.2 µM; in the test with MDA-MB-435 it was 0.971 µM; with NCI/ADR-RES ovarian it was 9.03 µM.
Consider `NCCC(O)(P(=O)(O)O)P(=O)(O)O`, for which the GI50 in the test with BT-549 breast is > 100 µM; in the test on HS 578T breast, > 100 µM; in the test with MCF7 breast, 37 µM; with MDA-MB-435, > 100 µM; with NCI/ADR-RES ovarian it was > 100 µM. For the same compound, the TGI with BT-549 breast, in the test on HS 578T breast, in the test with MCF7 breast, with MDA-MB-435 and with NCI/ADR-RES ovarian was > 100 µM each time.
In the case of `NS(=O)(=O)c1ccc(CCN=C=S)cc1`, the GI50 with BT-549 breast was 2.03 µM; in the test with HS 578T breast, 3.21 µM; in the test with MCF7 breast it was 0.808 µM; in the test on MDA-MB-435, 1.91 µM; in the test with NCI/ADR-RES ovarian, 3.2 µM. Besides, the TGI with BT-549 breast came to 4.37 µM; in the test on HS 578T breast, 15.5 µM; in the test with MCF7 breast it was 3.13 µM; in the test on MDA-MB-435, 3.88 µM; in the test on NCI/ADR-RES ovarian it was 11.3 µM.
Take `COC1=CC(c2ccc[nH]2)=N/C1=C\c1ccc[nH]1`: the GI50 with BT-549 breast is 0.145 µM; with HS 578T breast it was 0.292 µM; in the test with MCF7 breast, 0.346 µM; in the test with MDA-MB-435 it was 0.0737 µM; with NCI/ADR-RES ovarian, 0.304 µM. Besides, the TGI in the test on BT-549 breast stood at 5.71 µM; with HS 578T breast, 3.56 µM; in the test with MCF7 breast, 11.9 µM; in the test on MDA-MB-435, 4.24 µM; in the test on NCI/ADR-RES ovarian it was 13.8 µM.
Take `COc1ccc(/C(C)=N/OC(=O)c2c(-c3ccccc3Cl)noc2C)cc1CN1CCOCC1`: the TGI with BT-549 breast was 54.9 µM; with HS 578T breast, > 100 µM; in the test with MCF7 breast, 46.3 µM; with MDA-MB-435, 57.3 µM; in the test on NCI/ADR-RES ovarian it was > 100 µM.
Turning to `NCc1nnn(Cc2ccccc2)c1N`, the TGI with BT-549 breast, with HS 578T breast, in the test with MCF7 breast, with MDA-MB-435 and in the test with NCI/ADR-RES ovarian was > 100 µM throughout.
In the case of `COc1cc(/C=C2\COc3ccc(O)c(O)c3C2=O)cc(OC)c1`, the GI50 in the test with BT-549 breast is 1.56 µM; in the test with HS 578T breast, 2.66 µM; with MCF7 breast it was 1.71 µM; in the test with MDA-MB-435, 1.52 µM; in the test with NCI/ADR-RES ovarian it was 2.24 µM. The TGI with BT-549 breast was 4.97 µM; in the test with HS 578T breast it was 17.1 µM; in the test on MCF7 breast it was 14.6 µM; in the test with MDA-MB-435, 3.98 µM; with NCI/ADR-RES ovarian, 46.5 µM.
In the case of `COC1=CC(c2ccc[nH]2)=N/C1=C\c1[nH]c(C)c(C(=O)CCCCC(=O)Nc2ccccc2)c1C`, the GI50 in the test with BT-549 breast was 1.77 µM; with MCF7 breast, 1.37 µM; in the test with MDA-MB-435 it was 1.79 µM; in the test with NCI/ADR-RES ovarian, 1.89 µM. In addition, the TGI in the test on BT-549 breast was 13.4 µM; with MCF7 breast it was 2.75 µM; in the test on MDA-MB-435, 3.74 µM; in the test with NCI/ADR-RES ovarian it was 3.69 µM.
As to `COC(=O)C1=C(C(=O)OC)C23C=C(C)C1C2=C(C)C1(CC1)[C@@](C)(O)C3=O` (stereo partly specified), the GI50 with BT-549 breast was 0.404 µM; with HS 578T breast it was 1.37 µM; in the test with MCF7 breast it was 0.346 µM; with NCI/ADR-RES ovarian it was 0.303 µM. Besides, the TGI in the test on BT-549 breast is 3.3 µM; in the test with HS 578T breast, 7.61 µM; in the test with MCF7 breast, > 100 µM; in the test with NCI/ADR-RES ovarian, 4.24 µM.
As to `C=C(C)[C@@H]1CC[C@]2(C)[C@H](CC[C@@H]3[C@H]4[C@H]5OC[C@@]4(CCC5(C)C)CC[C@]32C)[C@@]1(C)CCCN`, the GI50 with BT-549 breast is 1.67 µM; in the test with HS 578T breast, 2.1 µM; in the test on MCF7 breast it was 1.57 µM; in the test on MDA-MB-435, 1.76 µM; in the test with NCI/ADR-RES ovarian, 1.95 µM. In addition, the TGI with BT-549 breast turned out to be 3.12 µM; in the test on HS 578T breast, 4.61 µM; with MCF7 breast it was 3.04 µM; with MDA-MB-435 it was 3.24 µM; in the test on NCI/ADR-RES ovarian it was 3.89 µM.
`O=C(/C=C\c1ccc(Cl)cc1Cl)c1cccs1`: the TGI in the test on HS 578T breast was 75.3 µM; in the test on MCF7 breast it was 41.1 µM; in the test on MDA-MB-435 it was 36.2 µM; in the test with NCI/ADR-RES ovarian, > 100 µM.
Consider `NS(=O)(=O)c1ccc(N2N=C3c4ccccc4CC3C2c2ccc(Cl)cc2)cc1` (stereo unspecified), for which the GI50 with HS 578T breast was 4.61 µM; in the test on MCF7 breast, 25 µM; in the test on MDA-MB-435, 16.1 µM; in the test with NCI/ADR-RES ovarian, 10.3 µM. Moreover, the TGI in the test on HS 578T breast was determined as 19.2 µM; in the test on MCF7 breast, 59.5 µM; in the test on MDA-MB-435, 37.2 µM; with NCI/ADR-RES ovarian it was 38.5 µM.
With `Nc1ncnc2c1ncn2C1OC(CO)=CC1O` (stereo unspecified), the TGI in the test with HS 578T breast, in the test on MCF7 breast, with MDA-MB-435 and with NCI/ADR-RES ovarian was > 37.5 µM in each case.
For `C=C1C(=O)O[C@H]2[C@H]1CC/C(COC(=O)NCc1c[nH]c3ccc(Cl)cc13)=C\CC[C@@]1(C)O[C@@H]21`, the GI50 is 1.18 µM in the test on BT-549 breast, 2.45 µM in the test with HS 578T breast, 1.12 µM with MDA-MB-435 and 2.84 µM in the test with NCI/ADR-RES ovarian. In addition, the TGI was found to be 2.61 µM with BT-549 breast, 6.82 µM in the test on HS 578T breast, 2.48 µM with MDA-MB-435 and 11.3 µM in the test with NCI/ADR-RES ovarian.
Consider `COc1cc(C(=O)c2cc3c(cc2C)OCO3)cc(OC)c1OC`, for which the GI50 with BT-549 breast is 0.211 µM; in the test with HS 578T breast, 0.174 µM; in the test on MCF7 breast, 0.0366 µM; with NCI/ADR-RES ovarian it was 0.226 µM. The TGI in the test with BT-549 breast, with HS 578T breast, in the test with MCF7 breast and in the test on NCI/ADR-RES ovarian was > 100 µM each time.
